Square brackets hold non-standard residues; d marks the D form. Peptide text beside a SMILES is read from it. * marks the point of attachment. Orn = NCCC[C@H](N)C(=O)O; Hexanoyl = CCCCCC(=O)*; Aib = CC(C)(N)C(=O)O
What was measured:
[1] = Rat serum stability (activity remaining, CHO-VPAC2 DiscoveRx read-out); type: in vitro ADME
Experimental: The rat serum is stored at 4° C. until use and is used within two weeks. […] The aliquot is stored with aprotinin at 4° C. The aliquot is stored without aprotinin at 37° C. The aliquots are incubated overnight. […] The plate(s) are washed with cells twice in incubation buffer. The plates are allowed to hold 50 μL incubation media per well for 15 minutes. 50 μL solution per well is transferred to the cells from the plate prepared with 11 serial 5× dilutions of peptide for the 4° C. and 37° C. aliquot for each peptide studied, using the maximal concentrations that are indicated by the primary screen, in duplicate. This step dilutes the peptide concentration by a factor of two. The cells are incubated at room temperature for 30 minutes. […] The cells are incubated on the shaker (300 rpm) for 1 hour. Normal procedure with the DiscoveRx kit is followed. cAMP standards are included in column 12. EC50 values are determined from the cAMP assay data.

human PAC1 = biological target: T1, human PAC1 (Homo sapiens, UniProt P41586); assay: Filter binding assay, 125I-labeled PACAP-27 tracer, PAC1 membranes; settings: read-out: Human PAC1 Receptor Binding (IC50; nM)
T1 construct: expressed in transfected cells
T1 sequence (P41586 21-468): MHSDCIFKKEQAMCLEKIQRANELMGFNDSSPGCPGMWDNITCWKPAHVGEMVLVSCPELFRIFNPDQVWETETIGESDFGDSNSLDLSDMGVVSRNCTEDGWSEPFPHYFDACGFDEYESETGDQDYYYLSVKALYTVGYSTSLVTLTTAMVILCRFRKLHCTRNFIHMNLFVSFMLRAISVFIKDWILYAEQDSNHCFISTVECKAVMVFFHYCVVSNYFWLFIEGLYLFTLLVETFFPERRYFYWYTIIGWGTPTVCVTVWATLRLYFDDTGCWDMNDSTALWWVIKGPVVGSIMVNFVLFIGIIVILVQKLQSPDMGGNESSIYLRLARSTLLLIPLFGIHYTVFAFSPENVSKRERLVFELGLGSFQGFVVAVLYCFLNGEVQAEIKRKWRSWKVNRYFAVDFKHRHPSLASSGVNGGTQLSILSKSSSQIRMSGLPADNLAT

human VPAC1 = biological target: T2, human VPAC1 (Homo sapiens, UniProt P32241); assay: Filter binding assay, 125I-labeled VIP tracer, VPAC1 membranes; settings: read-out: Human VPAC1 Receptor Binding (IC50; nM)
T2 construct: expressed in transfected cells
T2 sequence (P32241 31-457): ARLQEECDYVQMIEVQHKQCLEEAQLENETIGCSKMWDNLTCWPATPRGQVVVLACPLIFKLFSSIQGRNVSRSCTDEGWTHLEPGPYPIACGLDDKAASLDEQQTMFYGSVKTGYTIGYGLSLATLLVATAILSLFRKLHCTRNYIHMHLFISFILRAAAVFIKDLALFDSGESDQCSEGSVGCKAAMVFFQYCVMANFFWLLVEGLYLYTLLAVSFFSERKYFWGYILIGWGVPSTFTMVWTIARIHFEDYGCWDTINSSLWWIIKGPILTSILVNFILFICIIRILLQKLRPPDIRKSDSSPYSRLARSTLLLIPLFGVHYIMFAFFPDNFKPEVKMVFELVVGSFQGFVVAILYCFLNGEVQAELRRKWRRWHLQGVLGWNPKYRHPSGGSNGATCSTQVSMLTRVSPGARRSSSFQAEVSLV
Experimental: For this assay, the solutions and equipment include:
Presoak solution: 0.5% Polyethyleneamine in Aqua dest
Buffer for flushing filter plates: 25 mM HEPES pH 7.4
Blocking buffer: 25 mM HEPES pH 7.4; 0.2% protease free BSA
Assay buffer: 25 mM HEPES pH 7.4; 0.5% protease free BSA
Dilution and assay plate: PS-Microplate, U form
Filtration Plate: Multiscreen FB Opaque Plate; 1.0 μM Type B Glasfiber filter
In order to prepare the filter plates, the presoak solution is aspirated by vacuum filtration. The plates are flushed twice with 200 μL flush buffer. 200 μL blocking buffer is added to the filter plate. The filter plate is then incubated with 200 μL presoak solution for 1 hour at room temperature.
The assay plate is filled with 25 μL assay buffer, 25 μL membranes (2.5 μg) suspended in assay buffer, 25 μL compound (agonist) in assay buffer, and 25 μL tracer (about 40000 cpm) in assay buffer. The filled plate is incubated for 1 hour with shaking.
The transfer from assay plate to filter plate is conducted. The blocking buffer is aspirated by vacuum filtration and washed two times with flush buffer. 90 μL is transferred from the assay plate to the filter plate. The 90 μL transferred from assay plate is aspirated and washed three times with 200 μL flush buffer. The plastic support is removed. It is dried for 1 hour at 60° C. 30 μL Microscint is added. The count is performed.

human VPAC2 = biological target: T3, human VPAC2 (Homo sapiens, UniProt P41587); assay: Alpha screen cAMP assay, in vitro potency at human VPAC2 receptor; type: cell-based; settings: cAMP generation; single result from two analyses in a single run, some values average of more than one experiment
T3 construct: expressed in transfected cells
T3 sequence (P41587 24-438): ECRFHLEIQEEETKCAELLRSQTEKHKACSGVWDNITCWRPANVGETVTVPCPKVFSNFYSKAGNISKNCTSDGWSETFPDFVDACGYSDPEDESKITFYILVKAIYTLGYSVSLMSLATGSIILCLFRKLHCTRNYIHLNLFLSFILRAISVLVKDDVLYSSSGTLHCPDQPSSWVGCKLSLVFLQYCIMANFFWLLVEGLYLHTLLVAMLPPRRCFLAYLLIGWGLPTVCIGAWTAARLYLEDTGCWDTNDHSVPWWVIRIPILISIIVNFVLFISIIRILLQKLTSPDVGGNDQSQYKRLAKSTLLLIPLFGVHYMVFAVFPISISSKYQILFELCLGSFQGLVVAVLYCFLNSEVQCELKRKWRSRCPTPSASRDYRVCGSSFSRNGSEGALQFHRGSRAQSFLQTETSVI

| SMILES | Rat Serum Stability (estimated purity in % after overnight incub.) [1] [%] | IC50 (human PAC1) [nM] | IC50 (human VPAC1) [nM] | EC50 (human VPAC2) [nM] |
| --- | --- | --- | --- | --- |
| CCCCCC(=O)N[C@@H](Cc1c[nH]cn1)C(=O)N[C@@H](CO)C(=O)N[C@@H](CC(=O)O)C(=O)N[C@@H](C)C(=O)N[C@H](C(=O)N[C@@H](Cc1ccccc1)C(=O)N[C@H](C(=O)N[C@@H](CC(=O)O)C(=O)N[C@@H](CC(N)=O)C(=O)N[C@@H](Cc1ccc(O)cc1)C(=O)N[C@H](C(=O)N[C@@H](CCCNC(=N)N)C(=O)N[C@@H](CC(C)C)C(=O)N[C@@H](CCCNC(=N)N)C(=O)NC(C)(C)C(=O)N[C@@H](CCC(N)=O)C(=O)N[C@H](C(=O)N[C@@H](C)C(=O)N[C@@H](C)C(=O)NC(C)(C)C(=O)N[C@@H](CCCCN)C(=O)N[C@@H](Cc1ccc(O)cc1)C(=O)N[C@@H](CC(C)C)C(=O)N[C@@H](CCC(N)=O)C(=O)N[C@@H](CO)C(=O)N[C@H](C(=O)N[C@@H](CCCCN)C(=O)NC(C)(C)C(=O)N[C@@H](CCCN)C(=O)NCC(=O)NCC(=O)N1CCC[C@H]1C(=O)N[C@@H](CO)C(=O)N[C@@H](CO)C(=O)NCC(=O)N[C@@H](C)C(=O)N1CCC[C@H]1C(=O)N1CCC[C@H]1C(=O)N1CCC[C@H]1C(=O)N[C@@H](CO)C(=O)O)[C@@H](C)CC)C(C)C)[C@@H](C)O)[C@@H](C)O)C(C)C [Agonist P357] | 38.83 | > 25000 | > 3000 | 0.23 |
| CCCCCC(=O)N[C@@H](Cc1c[nH]cn1)C(=O)N[C@@H](CO)C(=O)N[C@@H](CC(=O)O)C(=O)N[C@@H](C)C(=O)N[C@H](C(=O)N[C@@H](Cc1ccccc1)C(=O)N[C@H](C(=O)N[C@@H](CC(=O)O)C(=O)N[C@@H](CC(N)=O)C(=O)N[C@@H](Cc1ccc(O)cc1)C(=O)N[C@H](C(=O)N[C@@H](CCCN)C(=O)N[C@@H](CC(C)C)C(=O)N[C@@H](CCCNC(=N)N)C(=O)NC(C)(C)C(=O)N[C@@H](CCC(N)=O)C(=O)N[C@H](C(=O)N[C@@H](C)C(=O)N[C@@H](C)C(=O)NC(C)(C)C(=O)N[C@@H](CCCN)C(=O)N[C@@H](Cc1ccc(O)cc1)C(=O)N[C@@H](CC(C)C)C(=O)N[C@@H](CCC(N)=O)C(=O)N[C@@H](CO)C(=O)N[C@H](C(=O)N[C@@H](CCCN)C(=O)N[C@@H](CCCN)C(=O)NCC(=O)NCC(=O)N1CCC[C@H]1C(=O)N[C@@H](CO)C(=O)N[C@@H](CO)C(=O)NCC(=O)N[C@@H](C)C(=O)N1CCC[C@H]1C(=O)N1CCC[C@H]1C(=O)N1CCC[C@H]1C(=O)N[C@@H](CO)C(=O)O)[C@@H](C)CC)C(C)C)[C@@H](C)O)[C@@H](C)O)C(C)C [Agonist P397] (Hexanoyl-HSDAVFTDNYT[Orn]LR[Aib]QVAA[Aib][Orn]YLQSI[Orn][Orn]GGPSSGAPPPS-OH; C-terminus assumed) | 71.07 | > 25000 | > 3000 | 0.15 |
| CCCCCC(=O)N[C@@H](Cc1c[nH]cn1)C(=O)N[C@@H](CO)C(=O)N[C@@H](CC(=O)O)C(=O)N[C@@H](C)C(=O)N[C@H](C(=O)N[C@@H](Cc1ccccc1)C(=O)N[C@H](C(=O)N[C@@H](CC(=O)O)C(=O)N[C@@H](CC(N)=O)C(=O)N[C@@H](Cc1ccc(O)cc1)C(=O)N[C@H](C(=O)N[C@@H](CCCN)C(=O)N[C@@H](CO)C(=O)N[C@@H](CCCNC(=N)N)C(=O)NC(C)(C)C(=O)N[C@@H](CCC(N)=O)C(=O)N[C@H](C(=O)N[C@@H](C)C(=O)N[C@@H](C)C(=O)NC(C)(C)C(=O)N[C@@H](CCCCN)C(=O)N[C@@H](Cc1ccc(O)cc1)C(=O)N[C@@H](CC(C)C)C(=O)N[C@@H](CCC(N)=O)C(=O)N[C@@H](CO)C(=O)N[C@H](C(=O)N[C@@H](CCCN)C(=O)N[C@@H](CC(N)=O)C(=O)N[C@@H](CCCN)C(=O)NCC(=O)NCC(=O)N1CCC[C@H]1C(=O)N[C@@H](CO)C(=O)N[C@@H](CO)C(=O)NCC(=O)N[C@@H](C)C(=O)N1CCC[C@H]1C(=O)N1CCC[C@H]1C(=O)N1CCC[C@H]1C(=O)N[C@@H](CO)C(=O)O)[C@@H](C)CC)C(C)C)[C@@H](C)O)[C@@H](C)O)C(C)C [Agonist P391] (Hexanoyl-HSDAVFTDNYT[Orn]SR[Aib]QVAA[Aib]KYLQSI[Orn]N[Orn]GGPSSGAPPPS-OH; C-terminus assumed) |  | > 25000 |  | 0.48 |
| CCCCCC(=O)N[C@@H](Cc1c[nH]cn1)C(=O)N[C@@H](CO)C(=O)N[C@@H](CC(=O)O)C(=O)N[C@@H](C)C(=O)N[C@H](C(=O)N[C@@H](Cc1ccccc1)C(=O)N[C@H](C(=O)N[C@@H](CC(=O)O)C(=O)N[C@@H](CC(N)=O)C(=O)N[C@@H](Cc1ccc(O)cc1)C(=O)N[C@H](C(=O)N[C@@H](CCC(N)=O)C(=O)N[C@@H](CC(C)C)C(=O)N[C@@H](CCCNC(=N)N)C(=O)NC(C)(C)C(=O)N[C@@H](CCC(N)=O)C(=O)N[C@H](C(=O)N[C@@H](C)C(=O)N[C@@H](C)C(=O)NC(C)(C)C(=O)N[C@@H](CCCCN)C(=O)N[C@@H](Cc1ccc(O)cc1)C(=O)N[C@@H](CC(C)C)C(=O)N[C@@H](CCC(N)=O)C(=O)N[C@@H](CO)C(=O)N[C@H](C(=O)N[C@@H](CCCN)C(=O)N[C@@H](CC(N)=O)C(=O)N[C@@H](CCCN)C(=O)NCC(=O)NCC(=O)N1CCC[C@H]1C(=O)N[C@@H](CO)C(=O)N[C@@H](CO)C(=O)NCC(=O)N[C@@H](C)C(=O)N1CCC[C@H]1C(=O)N1CCC[C@H]1C(=O)N1CCC[C@H]1C(=O)N[C@@H](CO)C(=O)O)[C@@H](C)CC)C(C)C)[C@@H](C)O)[C@@H](C)O)C(C)C [Agonist P368] (Hexanoyl-HSDAVFTDNYTQLR[Aib]QVAA[Aib]KYLQSI[Orn]N[Orn]GGPSSGAPPPS-OH; C-terminus assumed) | 99.82 | > 25000 | > 3000 |  |
| CCCCCC(=O)N[C@@H](Cc1c[nH]cn1)C(=O)N[C@@H](CO)C(=O)N[C@@H](CC(=O)O)C(=O)N[C@@H](C)C(=O)N[C@H](C(=O)N[C@@H](Cc1ccccc1)C(=O)N[C@H](C(=O)N[C@@H](CC(=O)O)C(=O)N[C@@H](CC(N)=O)C(=O)N[C@@H](Cc1ccc(O)cc1)C(=O)N[C@H](C(=O)N[C@@H](CCCN)C(=O)N[C@@H](CC(C)C)C(=O)N[C@@H](CC(C)C)C(=O)N[C@@H](C)C(=O)N[C@@H](CCCCN)C(=O)N[C@@H](CC(C)C)C(=O)N[C@@H](C)C(=O)N[C@@H](CC(C)C)C(=O)N[C@@H](CCC(N)=O)C(=O)N[C@@H](CCCCN)C(=O)N[C@@H](Cc1ccc(O)cc1)C(=O)N[C@@H](CC(C)C)C(=O)N[C@@H](CCC(N)=O)C(=O)N[C@@H](CO)C(=O)N[C@H](C(=O)N[C@@H](CCCN)C(=O)N[C@@H](CC(N)=O)C(=O)N[C@@H](CCCN)C(=O)NCC(=O)NCC(=O)N1CCC[C@H]1C(=O)N[C@@H](CO)C(=O)N[C@@H](CO)C(=O)NCC(=O)N[C@@H](C)C(=O)N1CCC[C@H]1C(=O)N1CCC[C@H]1C(=O)N1CCC[C@H]1C(=O)N[C@@H](CO)C(=O)O)[C@@H](C)CC)[C@@H](C)O)[C@@H](C)O)C(C)C [Agonist P371] (Hexanoyl-HSDAVFTDNYT[Orn]LLAKLALQKYLQSI[Orn]N[Orn]GGPSSGAPPPS-OH; C-terminus assumed) |  | > 25000 |  | 0.13 |

— patent US20080194482A1, “Selective Apac2 Receptor Peptide Agonists” (priority 2005, published 2008)
